{"source": "patent US5821331A", "about": "“Anti-picornaviral agents” (Eli Lilly and Company, priority 1996, dated 1998)", "key": {"[1]": {"tested_on": "2C'3ABCD portion of the HRV polyprotein precursor", "assay": "In Vitro Translation of HRV RNA (rabbit reticulocyte lysate, autoradiography)", "format": "biochemical, human rhinovirus", "settings": "for Processing of translated viral polyprotein (autoradiography): inhibitor included in cell-free translation assay", "text": "In a cell-free translation system, when no inhibitor was present, RNA corresponding to the 2C'3ABCD portion of the HRV polypeptide precursor was translated into the various individual proteins of the virus. […]\nComplementary DNA derived from the HRV genone and representing the 2C'3ABCD portion of the HRV polyprotein precursor (Lee W, Monroe S S, Reuckert R R (1993) J. Virol 67:211-2122) was inserted into the commercially available pCITE vector (Novagen, 565 Science Dr., Madison, Wis.). The vector is supplied with the Novagen Red Nova® Lysate translation assay kit, which provides a lysate of New Zealand White rabbit reticulocytes along with other reagents, that allows for efficient cell-free synthesis of proteins from exogenous RNA templates.\nThe pCITE 2C'3ABCD-containing plasmid was used to transform the JM101 cell line (Stratagene, La Jolla, Calif.) which was then grown under standardard conditions ([…], 37° C.) in 2× YT broth with ampicillin. The plasmid was then isolated by standard CsCl banding procedures.\nThe DNA was linearized by treatign the plasmid with 2 unitsMlu 1 restriction enzyme per μg DNA for 3 hours at 37° C., followed by proteinase K (50 μg/mL) treatment for 30 minutes at 37° C. The mixture was extracted twice with phenol/chloroform/isoamyl alcohol (1:1:1) followed by two extractions with chloroform/isoamyl alcohol (1:1). A 0.1 volume 3M sodium acetate (NaOAc), pH 5.2 and two volumes of 100% ethanol were added before placing at -80° C. for 60 minutes. The supernatant was decanted and the pellet was rinsed with 70% ethanol, dried under vacuum, and then resuspended in 25 μL Tris-EDTA buffer (10 mM Tris, 1 mM EDTA; pH 7.6). […]\nThe compounds of Formula I were assayed according to the Red Nova protocol for their ability to inhibit translation of the rhinoviral RNA by the reticulocyte lysate. ^3 H-Leucine (5 mCi/mL) was included in the assay mixture so that translation products could be identified by autoradiography when the samples were analyzed by SDS polyacrylamide gel electrophoresis. […]"}, "HRV": {"tested_on": "HRV", "assay": "Whole Cell Culture Assay of Anti-HRV Activity (Hela cells, XTT)", "format": "cell-based, human rhinovirus", "settings": "concentration not given", "procedure": "A third measure of antiviral activity was performed by determining the effects of selected 3C protease inhibitors of Formula I on HRV infection in cultures of Hela cells.\nCommercially available Hela cells are susceptible to HRV infection. The virus enters the cells where it readily replicates and when infection levels become high enough, the Hela cells die. The effect of HRV inhibitors can be measured in Hela cultures by first exposing the cells to HRV and shortly thereafter (before viral infection becomes critical) adding potential inhibitors. Compounds which inhibit 3C protease activity serve to protect the cells from the cytopathic effect of the virus. Comparison of viability in cultures receiving serial dilutions of inhibitor to cultures not receiving any inhibitor allows quantitation of the antiviral effect. Any toxic effect of the inhibitor can also be measured by comparing viability of treated cultures with those cultures which are not infected with the virus.\nViability determinations can be readily made by direct counts of viable cells or by assays representative of viability such as measurement of mitochondrial enzyme activity.\nHela cells were dispersed in a 96-well tissue culture plate at 20,000 cells per well with minimum essential medium containing Earl's balanced salt solution, 1% fetal bovine serum, penicillin (150 units/mL) and streptomycin (150 μg/mL). […]"}}, "note": "Where a SMILES comes first, the peptide text is derived from it. The star is where a group is joined. Boc = CC(C)(C)OC(=O)*"}
{"smiles": "CC(C)C[C@H](NC(=O)[C@@H](NC(=O)OC(C)(C)C)C(C)C)C(=O)N[C@@H](Cc1ccccc1)C(=O)N[C@H](C=O)CCC(N)=O", "note": "[Example 5, N-(t-butoxycarbonyl-L-valinyl-L-leucinyl-L-phenylalanyl)-L-gluatamine aldehyde] (Boc-VLFQ-aldehyde)", "values": [{"measurement": "Processing of translated viral polyprotein (autoradiography)", "setting": "[1]", "value": "single unprocessed band"}]}
{"smiles": "CC(=O)N[C@@H](CC(C)C)C(=O)N[C@@H](Cc1ccccc1)C(=O)N[C@H](C=O)CCC(N)=O", "note": "[Example 6, N-(Acetyl-L-leucinyl-L-phenylalanyl)-L-glutamine aldehyde] (Ac-Leu-Phe-Gln-aldehyde)", "values": [{"measurement": "Processing of translated viral polyprotein (autoradiography)", "setting": "[1]", "value": "single unprocessed band"}]}
{"smiles": "CC(C)C[C@H](N)C(=O)N[C@@H](Cc1ccccc1)C(=O)N[C@H](C=O)CCC(N)=O", "note": "[Example 7, N-(L-leucinyl-L-phenylalanyl)-L-glutamine aldehyde] (H-Leu-Phe-Gln-aldehyde)", "values": [{"measurement": "Translation Assay (toxic)", "setting": "[1]; at the dose tested (dose not given)", "value": "toxic"}, {"measurement": "Whole Cell Antiviral Testing (toxic)", "setting": "HRV", "value": "toxic"}]}
